Test results from PMC11503492, “Activity-Based DNA-Encoded Library Screening for Selective Inhibitors of Eukaryotic Translation” (ACS Central Science, 2024).

What was measured:
[1] = tested on: HeLa-derived IVTT; assay: HeLa lysate IVTT microplate activity assay; format: biochemical, human; conditions: dose-response
From the text: 421 region sequences were matched to an alpha numeric DNA region identifier (11xx, 22xx,
422 13xx, 24xx, 15xx, 26xx, respectively), while allowing a 1-bp mutation per encoding region.
423 No insertions or deletions were tolerated.
424 match a known encoding region identifier at all six encoding positions (2) contained a
425 single point mutation in more than 4 of the DNA encoding regions (3) contained a UMI
427 presented in the library or positive control designs or (5) contained a minimum Phred
428 quality score less than 20. A sum of UMI counts for all remaining unique combinations
429 of encoding region identifiers was then determined using a UMI aggregation algorithm;
430 1 bp mutations were considered the same UMI. Encoding region identifiers were then
431 converted to library BB identifiers per the library design with an associated UMI count.
432 Any encoding region/ bead-specific barcode combinations with a UMI count below a
433 manually determined threshold (10) were discarded. The remaining ”valid beads” were […]
440 progress was immediately monitored (λex = 480 nm, λem = 530 nm, 27 °C, 2 h). […]
441 tive activity was calculated using the slope of fluorescence increase over time (at 15–30 […]
449 immediately monitored (λex = 480 nm, λem = 530 nm, 27 °C, 2 h). […]
450 culated using the slope of fluorescence increase over time (15–30 min post reaction initia- […]

[2] = tested on: PCSK9[1:33]-GFP translation; assay: Wheat germ lysate (WG) IVTT microplate activity assay, PCSK9[1:33]-GFP template; format: biochemical; conditions: for inhibition of PCSK9[1:33]-GFP translation (in words) / IC50: WG IVTT; for IC50: PCSK9[1:33]-GFP template, triplicate, ± standard deviation of the mean
From the text: A commercially available wheat germ lysate (WG) IVTT system was employed to assay translation inhibition. Translation activity was detected via a GFP reporter, and the assay was miniaturized to picoliter-scale microfluidic droplets (Figure 1A,B). […] PCSK9 and RPL27 were truncated to the first 33 and 32 amino acids, respectively (PCSK9[1:33] and RPL27[1:32]). The sequences contain distinct PF846 stall sites and were both fused to a GFP reporter. The GFP reporter and a frameshift mutant of PCSK9[1:33] (PCSK9-FS[1:33]), which mutates the nascent chain sequence while maintaining a nearly identical mRNA sequence, were included as negative controls.[13] […] Sequence sensitivity was further confirmed by an N-terminal deletion series of PCSK9[1:33]-GFP; deletion of N-terminal residues increasingly ablated PCSK9[1:33]-GFP translation sensitivity to PF846 (Figure 1D). The WG IVTT assay was miniaturized using a previously described microfluidic circuit modified for longer incubation times (Figure S1)[27] using PF846 as a positive control compound, and assay statistical quality was calculated (Z′=0.7) (Figure 1E). To confirm detection of translation inhibition from library beads, hygromycin B, a nonselective aminoglycoside translation inhibitor, was coupled to beads displaying a photocleavable linker (PC-HygB). UV irradiation releases hygromycin from the bead, allowing it to interact with the WG IVTT assay in the droplet. PC-HygB bead photocleavage supernatant inhibited PCSK9[1:33]-GFP translation both in a microplate assay and in microfluidic droplets (Figure 1F,G, S2). Assay statistical quality using PC-HygB positive control beads was similarly calculated (Z′ = 0.75, Figure 1H). […]
436 Microplate IVTT Assays
437 Wheat germ lysate IVTT plate assays were prepared as 5 µL reactions. Wheat germ lysate
438 (3 µL) was added to test compound or vehicle control (1 µL) in a 384-well black microplate
439 and the reaction was incubated (10 min, RT). Template (1 µL) was added and reaction
440 progress was immediately monitored (λex = 480 nm, λem = 530 nm, 27 °C, 2 h). Rela-
441 tive activity was calculated using the slope of fluorescence increase over time (at 15–30
442 min post reaction initiation) for compound samples relative to that of the DMSO vehicle
443 control. […]

[3] = tested on: PCSK9[1:33]-GFP translation from mRNA; assay: IVTT activity assay of PCSK9[1:33]-GFP initiated with RNA template; format: biochemical
Method: Figure S10. Activity of compounds 8 and 9 on transcription. (A) Screening hits 8 and 9 were analyzed in dose-response IVTT activity assays of PCSK9[1:33]-GFP initiated with DNA (black) and RNA (gray) template. (B) Products of PCSK9[1:33]-GFP T7 transcription reactions incubated with DMSO, screening hits 8 and 9, or PF846 were visualized on a 1.5% agarose gel
(1 picture or pasted object on this page, not shown here)

Compound	activity in HeLa-derived (human) IVTT (in words) [1]	inhibition of PCSK9[1:33]-GFP translation (in words) [2]	IC50 [2]	activity when translation initiated from mRNA rather than plasmid DNA (in words) [3]	inhibition of translation of all reporters (in words) ([2]; all IVTT reporters tested)
Cc1cccc2ccnc(N(C(=O)[C@H]3CCCN(C(=O)c4cccc5c(C#N)c[nH]c45)C3)[C@@H]3CCCNC3)c12 [Compound 8]	active	moderately inhibited	1.3 ± 0.2 µM	active	–
Cc1cccc2ccnc(N(C(=O)C3CCN(C(=O)c4cccc5c(C#N)c[nH]c45)CC3)[C@@H]3CCCNC3)c12 [Compound 9]	active	similarly active on both templates	19.6 ± 0.2 µM	inactive	universally and completely inhibited
